Experimental data taken from US10828317B2, “Method of treating bacterial infections” (priority 2016, dated 2020).
Where two headings read alike, the source gives them in different places.

Assays:
P. mirabilis EN0457 = test: MIC; format: cell-based, Proteus mirabilis; details: Proteus mirabilis, read-out: MIC
E. coli EN002 = test: MIC, DtoIC; format: cell-based, Escherichia coli; details: Escherichia coli, read-out: MIC
K. pneumoniae EN0244 = test: MIC, colistinR; format: cell-based; details: Klebsiella pneumoniae, read-out: MIC
P. aeruginosa EN004 = test: MIC, WT (EN004 = EN0004); format: cell-based, Pseudomonas aeruginosa
S. marescens EN0454 = test: MIC; format: cell-based, Serratia marescens; details: Serratia, read-out: MIC
P. aeruginosa EN0422 = test: MIC; format: cell-based, Pseudomonas aeruginosa; details: Pseudomonas aeruginosa, read-out: MIC
K. pneumoniae EN0144 = test: MIC, MBL (VIM-1); format: cell-based; details: Klebsiella pneumoniae, read-out: MIC
K. pneumoniae EN0145 = test: MIC, KPC-2; format: cell-based; details: Klebsiella pneumoniae, read-out: MIC
E. coli B EN0458 = test: MIC; format: cell-based, Escherichia coli B; details: Escherichia coli, read-out: MIC
M. luteus EN0455 = test: MIC; format: cell-based, Micrococcus luteus; details: Micrococcus luteus, read-out: MIC
E. aerogenes EN0461 = test: MIC; format: cell-based, Enterobacter aerogenes; details: Klebsiella aerogenes, read-out: MIC
P. aeruginosa EN0459 = test: MIC; format: cell-based, Pseudomonas aeruginosa; details: Pseudomonas aeruginosa, read-out: MIC
S. flexneri APV00907 = test: MIC and antibiogram; format: cell-based; details: Shigella flexneri, Table 22A
Description: Inhibition of Heliobacter is important in view of increasing resistance and its association to gastric cancer.

P. aeruginosa EN014 = test: MIC, WT; format: cell-based, Pseudomonas aeruginosa; details: Pseudomonas aeruginosa, read-out: MIC
K. pneumoniae EN0463 = test: MIC; format: cell-based, Klebsiella pneumoniae; details: Klebsiella pneumoniae, read-out: MIC
A. baumannii EN007 = test: MIC, WT (EN007 = EN0007); format: cell-based, Acinetobacter baumannii; details: Acinetobacter baumannii, EN007, Combination 1 AZT+trimethoprim+uridine, Table 16; read-out: MIC

Measured: MIC

COc1cc(Cc2cnc(N)nc2N)cc(OC)c1OC [Trimethoprim, trimethoprim]
0.064 µg/mL: E. coli EN002; EN002, combination FdUrd+trimethoprim+uridine, Table 8 | E. coli EN002; EN002, combination didanosine+trimethoprim+uridine, Table 10 | E. coli B EN0458; BEN0458, combination FdUrd+trimethoprim+uridine, Table 8 | E. coli B EN0458; BEN0458, combination didanosine+trimethoprim+uridine, Table 10
4 µg/mL: P. mirabilis EN0457; EN0457, combination didanosine+trimethoprim+uridine, Table 10 | M. luteus EN0455; EN0455, combination FdUrd+trimethoprim+uridine, Table 8 | M. luteus EN0455; EN0455, combination didanosine+trimethoprim+uridine, Table 10
> 4 µg/mL: P. mirabilis EN0457; EN0457, Combination 2 AZT+trimethoprim+uridine+thymidine, Table 16 | P. aeruginosa EN004; Pseudomonas aeruginosa, EN004, Combination 1 AZT+trimethoprim+uridine, Table 16, read-out: MIC | P. aeruginosa EN004; Pseudomonas aeruginosa, EN004, Combination 2 AZT+trimethoprim+uridine+thymidine, Table 16, read-out: MIC | P. aeruginosa EN004; Pseudomonas aeruginosa, EN004, combination AZT+trimethoprim+uridine, Table 6, read-out: MIC | S. marescens EN0454; EN0454, Combination 1 AZT+trimethoprim+uridine, Table 16 | S. marescens EN0454; EN0454, Combination 2 AZT+trimethoprim+uridine+thymidine, Table 16 | P. aeruginosa EN0422; EN0422, Combination 2 AZT+trimethoprim+uridine+thymidine, Table 16 | P. aeruginosa EN0422; EN0422, combination AZT+trimethoprim+uridine, Table 6 | M. luteus EN0455; EN0455, Combination 2 AZT+trimethoprim+uridine+thymidine, Table 16 | P. aeruginosa EN0459; EN0459, Combination 1 AZT+trimethoprim+uridine, Table 16 | P. aeruginosa EN0459; EN0459, Combination 2 AZT+trimethoprim+uridine+thymidine, Table 16 | P. aeruginosa EN0459; EN0459, combination AZT+trimethoprim+uridine, Table 6 | P. aeruginosa EN014; EN014, Combination 1 AZT+trimethoprim+uridine, Table 16 | P. aeruginosa EN014; EN014, Combination 2 AZT+trimethoprim+uridine+thymidine, Table 16 | P. aeruginosa EN014; EN014, combination AZT+trimethoprim+uridine, Table 6 | A. baumannii EN007
1 µg/mL: S. marescens EN0454; EN0454, combination AZT+trimethoprim+uridine, Table 6 | K. pneumoniae EN0144; EN0144, combination AZT+trimethoprim+uridine, Table 17B | E. aerogenes EN0461; EN0461, combination didanosine+trimethoprim+uridine, Table 10
> 8 µg/mL: K. pneumoniae EN0244; EN0244, combination FdUrd+trimethoprim+uridine, Table 19 | K. pneumoniae EN0244; EN0244, combination didanosine+trimethoprim+uridine, Table 20 | P. aeruginosa EN004; Pseudomonas aeruginosa, EN004, combination FdUrd+trimethoprim+uridine, Table 8, read-out: MIC | P. aeruginosa EN004; Pseudomonas aeruginosa, EN004, combination didanosine+trimethoprim+uridine, Table 10, read-out: MIC | S. marescens EN0454; EN0454, combination FdUrd+trimethoprim+uridine, Table 8 | S. marescens EN0454; EN0454, combination didanosine+trimethoprim+uridine, Table 10 | P. aeruginosa EN0422; EN0422, Combination 1 AZT+trimethoprim+uridine, Table 16 | P. aeruginosa EN0422; EN0422, combination FdUrd+trimethoprim+uridine, Table 8 | P. aeruginosa EN0422; EN0422, combination didanosine+trimethoprim+uridine, Table 10 | K. pneumoniae EN0144; EN0144, combination FdUrd+trimethoprim+uridine, Table 19 | K. pneumoniae EN0144; EN0144, combination didanosine+trimethoprim+uridine, Table 20 | K. pneumoniae EN0145; EN0145, combination FdUrd+trimethoprim+uridine, Table 19 | K. pneumoniae EN0145; EN0145, combination didanosine+trimethoprim+uridine, Table 20 | P. aeruginosa EN0459; EN0459, combination FdUrd+trimethoprim+uridine, Table 8 | P. aeruginosa EN0459; EN0459, combination didanosine+trimethoprim+uridine, Table 10 | S. flexneri APV00907; APV00907, combination FdUrd+trimethoprim+uridine | P. aeruginosa EN014; EN014, combination FdUrd+trimethoprim+uridine, Table 8 | P. aeruginosa EN014; EN014, combination didanosine+trimethoprim+uridine, Table 10
>4 µg/mL: P. aeruginosa EN004; combination AZT+trimethoprim+uridine, Table 17B
0.016 µg/mL: E. coli EN002; EN002, Combination 1 AZT+trimethoprim+uridine, Table 16 | E. coli EN002; EN002, combination AZT+trimethoprim+uridine, Table 6
0.25 µg/mL: E. aerogenes EN0461; EN0461, Combination 1 AZT+trimethoprim+uridine, Table 16 | E. aerogenes EN0461; EN0461, combination AZT+trimethoprim+uridine, Table 6
2 µg/mL: P. mirabilis EN0457; EN0457, Combination 1 AZT+trimethoprim+uridine, Table 16 | P. mirabilis EN0457; EN0457, combination AZT+trimethoprim+uridine, Table 6 | P. mirabilis EN0457; EN0457, combination FdUrd+trimethoprim+uridine, Table 8 | K. pneumoniae EN0145; EN0145, combination AZT+trimethoprim+uridine, Table 17B | M. luteus EN0455; EN0455, Combination 1 AZT+trimethoprim+uridine, Table 16 | M. luteus EN0455; EN0455, combination AZT+trimethoprim+uridine, Table 6 | E. aerogenes EN0461; EN0461, Combination 2 AZT+trimethoprim+uridine+thymidine, Table 16 | E. aerogenes EN0461; EN0461, combination FdUrd+trimethoprim+uridine, Table 8 | S. flexneri APV00907; APV00907, combination AZT+trimethoprim+uridine
0.5 µg/mL: K. pneumoniae EN0244; EN0244, combination AZT+trimethoprim+uridine, Table 17B | K. pneumoniae EN0463; EN0463, combination FdUrd+trimethoprim+uridine, Table 8 | K. pneumoniae EN0463; EN0463, combination didanosine+trimethoprim+uridine, Table 10
0.06 µg/mL: K. pneumoniae EN0463; EN0463, combination AZT+trimethoprim+uridine, Table 6
>8 µg/mL: P. aeruginosa EN004; combination FdUrd+trimethoprim+uridine, Table 19 | P. aeruginosa EN004; combination didanosine+trimethoprim+uridine, Table 20
